Data on 1 substance can be found in PMC13185748, “Targeting noncanonical nuclear factor kappa B signalling in CYLD cutaneous syndrome by selective inhibition of IκB kinase alpha” (The British Journal of Dermatology, 2026).

For the assay, the target named is T1, IκB kinase alpha (IKKα) (Homo sapiens, UniProt O15111).
T1 construct: gene CHUK
T1 sequence (O15111 1-745): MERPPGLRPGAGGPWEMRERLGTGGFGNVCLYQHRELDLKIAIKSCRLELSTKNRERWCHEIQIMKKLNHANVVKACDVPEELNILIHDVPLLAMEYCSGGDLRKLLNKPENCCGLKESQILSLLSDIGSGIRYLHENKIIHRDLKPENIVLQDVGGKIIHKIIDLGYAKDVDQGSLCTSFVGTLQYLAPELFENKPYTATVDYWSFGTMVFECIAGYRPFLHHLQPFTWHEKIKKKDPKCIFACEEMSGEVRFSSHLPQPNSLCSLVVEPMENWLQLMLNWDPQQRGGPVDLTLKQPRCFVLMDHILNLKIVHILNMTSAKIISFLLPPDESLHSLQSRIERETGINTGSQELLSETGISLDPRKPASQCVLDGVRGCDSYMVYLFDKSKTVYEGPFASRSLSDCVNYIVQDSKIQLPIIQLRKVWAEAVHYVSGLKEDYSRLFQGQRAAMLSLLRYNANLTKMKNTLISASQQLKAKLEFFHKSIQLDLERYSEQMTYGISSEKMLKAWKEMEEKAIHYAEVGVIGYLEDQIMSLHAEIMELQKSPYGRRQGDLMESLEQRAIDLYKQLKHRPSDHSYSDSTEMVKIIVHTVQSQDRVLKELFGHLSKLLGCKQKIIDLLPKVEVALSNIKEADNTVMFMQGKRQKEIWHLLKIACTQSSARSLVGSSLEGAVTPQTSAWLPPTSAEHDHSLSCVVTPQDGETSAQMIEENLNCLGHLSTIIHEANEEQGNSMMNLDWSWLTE
Kind of assay: target engagement in PC3m cells by pharmacodynamic markers (p100 phosphorylation; RelB nuclear translocation), data not shown. Type of assay: cell-based.

A word on the IC50: it is the point on the concentration scale where inhibition reaches its midpoint. High values mean weaker potency in that assay, low ones greater potency in that assay. SU1644: it took 50 nM to reach half-maximal inhibition (IC50).
